Legend:
Assay in all cases: biochemical
[1] = target: T1, HCV NS3/4A protease D168A variant (Hepatitis C virus genotype 1a, UniProt P27958, C1185S/D1194A); type: biochemical
T1 construct: His-tag (cleaved yes); made in house; host or cells: Escherichia coli BL21(DE3), PET28a vector
Procedure: (§1) The HCV GT1a NS3/4A protease gene described in the Bristol Myers Squibb patent was synthesized by GenScript and cloned into a PET28a expression vector. Cys159 was mutated to a serine residue to prevent disulfide bond formation and facilitate crystallization. The D168A gene was engineered using the site-directed mutagenesis protocol from Stratagene. Protein expression and purification were carried out as previously described.
(§2) Km constants for GT1 and D168A protease were previously determined. […] Inner filter effect corrections were applied to the initial velocities (Vo) at each substrate concentration. Vo versus substrate concentration graphs were globally fit to the Michaelis-Menten equation to obtain the Km value.
(§3) For each assay, 2 nM of NS3/4A protease (GT1a and D168A) was pre-incubated at room temperature for 1 h with increasing concentration of inhibitors in assay buffer (50 mM Tris, 5% glycerol, 10 mM DTT, 0.6 mM LDAO, and 4% dimethyl sulfoxide, pH 7.5). Inhibition assays were performed in non-binding surface 96-well black half-area plates (Corning) in a reaction volume of 60 μL. […] Three independent data sets were collected for each inhibitor with each protease construct.

[2] = target: T2, wild-type HCV NS3/4A protease (GT1a) (Hepatitis C virus genotype 1a, UniProt P27958, C1185S); type: biochemical
T2 construct: His-tag (cleaved yes); made in house; host or cells: Escherichia coli BL21(DE3), PET28a vector
Procedure: as §1, §2, §3

[3] = test system: HCV NS3/4A protease D168A variant; type: biochemical, Hepatitis C virus; details: for Fold Change of D168A Ki with respect to GT1a wild-type: Table S1, value in parentheses
Procedure: as §1, §2, §3

T2 sequence (P27958 1027-1208 C1185S): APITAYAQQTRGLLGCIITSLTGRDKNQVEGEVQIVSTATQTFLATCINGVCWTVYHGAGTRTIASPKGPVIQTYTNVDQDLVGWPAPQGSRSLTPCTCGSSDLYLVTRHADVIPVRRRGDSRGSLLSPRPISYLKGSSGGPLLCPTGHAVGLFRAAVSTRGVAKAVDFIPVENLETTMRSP
T1 sequence (P27958 1027-1208 C1185S/D1194A): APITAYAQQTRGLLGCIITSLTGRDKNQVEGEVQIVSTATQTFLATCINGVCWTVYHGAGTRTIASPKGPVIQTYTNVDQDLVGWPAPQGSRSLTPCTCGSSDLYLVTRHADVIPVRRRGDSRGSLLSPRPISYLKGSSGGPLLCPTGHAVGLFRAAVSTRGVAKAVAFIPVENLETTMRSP

With `COC(=O)N[C@H](C(=O)N[C@H]1CCCCC/C=C\[C@@H]2C[C@@]2(C(=O)NS(=O)(=O)C2(C)CC2)NC(=O)[C@@H]2C[C@@H](Oc3nc4cc(OC)ccc4nc3C)CN2C1=O)C1CCCCC1` [Inhibitor P4P5-6, Methyl ((S)-1-cyclohexyl-2-(((2R,6S,13aS,14aR,16aS,Z)-2-((7-methoxy-3-methylquinoxalin-2-yl)oxy)-14a-(((1-methylcyclopropyl)sulfonyl)carbamoyl)-5,16-dioxo-1,2,3,5,6,7,8,9,10,11,13a,14,14a,15,16,16a-hexadecahydrocyclopropa[e]pyrrolo[1,2-a][1,4]diazacyclopentadecin-6-yl)amino)-2-oxoethyl)carbamate] the Ki [1] was 0.00968 ± 0.00064 µM, the “fold more potent than grazoprevir towards D168A” value ([1]; compared to grazoprevir) was 5 fold and the Ki [2] was 0.00091 ± 0.00038 µM. For the same molecule, the “Fold Change of D168A Ki with respect to GT1a wild-type” value (shortened to “Fold Change of D168A Ki”) [3] was “(11) fold”.

With `COC(=O)NC1(C(=O)N[C@H]2CCCCC/C=C\[C@@H]3C[C@@]3(C(=O)NS(=O)(=O)C3(C)CC3)NC(=O)[C@@H]3C[C@@H](Oc4nc5cc(OC)ccc5nc4C)CN3C2=O)CCCC1` [Inhibitor P4P5-5, Methyl (1-(((2R,6S,13aS,14aR,16aS,Z)-2-((7-methoxy-3-methylquinoxalin-2-yl)oxy)-14a-(((1-methylcyclopropyl)sulfonyl)carbamoyl)-5,16-dioxo-1,2,3,5,6,7,8,9,10,11,13a,14,14a,15,16,16a-hexadecahydrocyclopropa[e]pyrrolo[1,2-a][1,4]diazacyclopentadecin-6-yl)carbamoyl)cyclopentyl)carbamate] the Ki [1] was 0.931 ± 0.07 µM, the Ki [2] was 0.031 ± 0.00274 µM and the “fold loss in potency against D168A relative to WT” value [3] was 30 fold. The “Fold Change of D168A Ki” value [3] was “(30) fold”.

In the case of `COC(=O)N[C@H](C(=O)N[C@H]1CCCCC/C=C\[C@@H]2C[C@@]2(C(=O)NS(=O)(=O)C2(C)CC2)NC(=O)[C@@H]2C[C@@H](Oc3nc4cc(OC)ccc4nc3C)CN2C1=O)C(C)C` [Inhibitor P4P5-1B, Methyl ((S)-1-(((2R,6S,13aS,14aR,16aS,Z)-2-((7-methoxy-3-methylquinoxalin-2-yl)oxy)-14a-(((1-methylcyclopropyl)sulfonyl)carbamoyl)-5,16-dioxo-1,2,3,5,6,7,8,9,10,11,13a,14,14a,15,16,16a-hexadecahydrocyclopropa[e]pyrrolo[1,2-a][1,4]diazacyclopentadecin-6-yl)amino)-3-methyl-1-oxobutan-2-yl)carbamate], the Ki [1] is reported as 0.102 ± 0.0068 µM, the Ki [2] is reported as 0.013 ± 0.0008 µM and the “Fold Change of D168A Ki” value [3] is reported as “(8) fold”.

With `CCC1(OC(=O)N[C@H]2CCCCC/C=C\[C@@H]3C[C@@]3(C(=O)NS(=O)(=O)C3(C)CC3)NC(=O)[C@@H]3C[C@@H](Oc4nc5cc(OC)ccc5nc4C)CN3C2=O)CCCC1` [NR01-97, 1-Ethylcyclopentyl ((2R,6S,13aS,14aR,16aS, Z)-2-((7-methoxy-3-methylquinoxalin-2-yl)oxy)-14a-(((1-methylcyclopropyl)sulfonyl)carbamoyl)-5,16-dioxo-1,2,3,5,6,7,8,9,10,11,13a,14,14a,15,16,16a-hexadecahydrocyclopropa[e]pyrrolo[1,2-a][1,4]diazacyclopentadecin-6-yl) carbamate] the Ki [1] was 0.0217 ± 0.0023 µM, the “fold increase in potency against D168A compared to the parent compound” value [1] was ~3 fold and the Ki [2] was 0.00129 ± 5e-05 µM. The “Fold Change of D168A Ki” value [3] was “(17) fold”.

In the case of `COC(=O)N[C@H](C(=O)N[C@H]1CCCCC/C=C\[C@@H]2C[C@@]2(C(=O)NS(=O)(=O)C2(C)CC2)NC(=O)[C@@H]2C[C@@H](Oc3nc4cc(OC)ccc4nc3C)CN2C1=O)C1CCCC1` [Inhibitor P4P5-3B, Methyl ((S)-1-cyclopentyl-2-(((2R,6S,13aS,14aR,16aS,Z)-2-((7-methoxy-3-methylquinoxalin-2-yl)oxy)-14a-(((1-methylcyclopropyl)sulfonyl)carbamoyl)-5,16-dioxo-1,2,3,5,6,7,8,9,10,11,13a,14,14a,15,16,16a-hexadecahydrocyclopropa[e]pyrrolo[1,2-a][1,4]diazacyclopentadecin-6-yl)amino)-2-oxoethyl)carbamate], the Ki [1] is reported as 0.0316 ± 0.0021 µM, the Ki [2] is reported as 0.00354 ± 0.00013 µM and the “Fold Change of D168A Ki” value [3] is reported as “(9) fold”.

In the case of `COc1ccc2nc(C)c(O[C@@H]3C[C@H]4C(=O)N[C@]5(C(=O)NS(=O)(=O)C6(C)CC6)C[C@H]5/C=C\CCCCC[C@H](NC(=O)[C@@H](NC(C)=O)C5CCCC5)C(=O)N4C3)nc2c1` [Inhibitor P4P5-3A, (2R,6S,13aS,14aR,16aS, Z)-6-((S)-2-acetamido-2-cyclopentylacetamido)-2-((7-methoxy-3-methylquinoxalin-2-yl)oxy)-N-((1-methylcyclopropyl)sulfonyl)-5,16-dioxo-1,2,3,6,7,8,9,10,11,13a,14,15,16,16a-tetradecahydrocyclopropa[e]pyrrolo[1,2-a][1,4]diazacyclopentadecine-14a(5H)-carboxamide], the Ki [1] is reported as 0.0873 µM, the Ki [2] is reported as 0.00223 ± 7e-05 µM and the “Fold Change of D168A Ki” value [3] is reported as “(39) fold”. For the same molecule, the “fold less potent than the methyl carbamate analog P4P5-3B” value ([3]; acetamide (3A) vs methyl carbamate (3B)) was ~3 fold.

In the case of `COc1ccc2nc(C)c(O[C@@H]3C[C@H]4C(=O)N[C@]5(C(=O)NS(=O)(=O)C6(C)CC6)C[C@H]5/C=C\CCCCC[C@H](NC(=O)OC5(C)CC5)C(=O)N4C3)nc2c1` [NR02-24, 1-Methylcyclopropyl ((2R,6S,13aS,14aR,16aS,Z)-2-((7-methoxy-3-methylquinoxalin-2-yl)oxy)-14a-(((1-methylcyclopropyl)sulfonyl)carbamoyl)-5,16-dioxo-1,2,3,5,6,7,8,9,10,11,13a,14,14a,15,16,16a-hexadecahydrocyclopropa[e]pyrrolo [1,2-a][1,4]diazacyclopentadecin-6-yl)carbamate], the Ki [1] is reported as 0.0279 ± 0.0041 µM, the “fold increase in potency against D168A compared to the parent compound” value [1] is reported as ~2 fold and the Ki [2] is reported as 0.00444 ± 0.0003 µM. The “Fold Change of D168A Ki” value [3] was “(6) fold”.

With `COc1ccc2nc(C)c(O[C@@H]3C[C@H]4C(=O)N[C@]5(C(=O)NS(=O)(=O)C6(C)CC6)C[C@H]5/C=C\CCCCC[C@H](NC(=O)[C@@H](NC(C)=O)C(C)(C)C)C(=O)N4C3)nc2c1` [Inhibitor P4P5-2A, (2R,6S,13aS,14aR,16aS,Z)-6-((S)-2-Acetamido-3,3-dimethylbutanamido)-2-((7-methoxy-3-methylquinoxalin-2-yl)oxy)-N-((1-methylcyclopropyl)sulfonyl)-5,16-dioxo-1,2,3,6,7,8,9,10,11,13a,14,15,16,16a-tetradecahydrocyclopropa[e]pyrrolo[1,2-a][1,4]diazacyclopentadecine-14a(5H)-carboxamide] the Ki [1] was 0.215 ± 0.016 µM, the Ki [2] was 0.0239 ± 0.0017 µM and the “Fold Change of D168A Ki” value [3] was “(9) fold”.

With `COc1ccc2nc(C)c(O[C@@H]3C[C@H]4C(=O)N[C@]5(C(=O)NS(=O)(=O)C6(C)CC6)C[C@H]5/C=C\CCCCC[C@H](NC(=O)[C@@H](NC(C)=O)C(C)C)C(=O)N4C3)nc2c1` [Inhibitor P4P5-1A, (2R,6S,13aS,14aR,16aS,Z)-6-((S)-2-Acetamido-3-methylbutanamido)-2-((7-methoxy-3-methylquinoxalin-2-yl)oxy)-N-((1-methylcyclopropyl)sulfonyl)-5,16-dioxo-1,2,3,6,7,8,9,10,11,13a,14,15,16,16a-tetradecahydrocyclopropa[e]pyrrolo[1,2-a][1,4]diazacyclopentadecine-14a(5H)-carboxamide] the Ki [1] was 0.141 ± 0.018 µM, the Ki [2] was 0.0111 ± 0.0005 µM and the “Fold Change of D168A Ki” value [3] was “(13) fold”.

`CC[C@H](C)[C@H](NC(C)=O)C(=O)N[C@H]1CCCCC/C=C\[C@@H]2C[C@@]2(C(=O)NS(=O)(=O)C2(C)CC2)NC(=O)[C@@H]2C[C@@H](Oc3nc4cc(OC)ccc4nc3C)CN2C1=O` [Inhibitor P4P5-4, (2R,6S,13aS,14aR,16aS,Z)-6-((2S,3S)-2-acetamido-3-methylpentanamido)-2-((7-methoxy-3-methylquinoxalin-2-yl)oxy)-N-((1-methylcyclopropyl)sulfonyl)-5,16-dioxo-1,2,3,6,7,8,9,10,11,13a,14,15,16,16a-tetradecahydrocyclopropa[e]pyrrolo[1,2-a][1,4]diazacyclopentadecine-t4a(5H)-carboxamide] was tested, and the Ki [1] was 0.081 µM, the Ki [2] was 0.0071 ± 0.00024 µM and the “Fold Change of D168A Ki” value [3] was “(11) fold”.

`COc1ccc2nc(C(F)(F)F)c(O[C@@H]3C[C@H]4C(=O)N[C@]5(C(=O)NS(=O)(=O)C6(C)CC6)C[C@H]5/C=C\CCCCC[C@H](NC(=O)OCC(C)(C)C)C(=O)N4C3)nc2c1` [NR02-48, Neopentyl ((2R,6S,13aS,14aR,16aS,Z)-2-((7-methoxy-3-(trifluoromethyl)quinoxalin-2-yl)oxy)-14a-(((1-methylcyclopropyl)sulfonyl)carbamoyl)-5,16-dioxo-1,2,3,5,6,7,8,9,10,11,13a,14,14a,15,16,16a-hexadecahydrocyclopropa[e]pyrrolo[1,2-a][1,4]diazacyclopentadecin-6-yl)carbamate] showed a Ki [1] of 0.013 ± 0.0016 µM and a Ki [2] of 0.00294 ± 0.00014 µM.
